Data on 19 compounds can be found in patent US20100041892A1, “Therapeutic agent for diabetes” (priority 2005, published 2010).

The target in one data set is T1, PPARγ-RXRα heterodimer (Homo sapiens, UniProt P37231).
T1 construct: expressed in transfected cells; host or cells: CHO-K1 (PPARγ:RXRα:4ERPP/CHO-K1)
T1 sequence (P37231 1-477 isoform P37231-2): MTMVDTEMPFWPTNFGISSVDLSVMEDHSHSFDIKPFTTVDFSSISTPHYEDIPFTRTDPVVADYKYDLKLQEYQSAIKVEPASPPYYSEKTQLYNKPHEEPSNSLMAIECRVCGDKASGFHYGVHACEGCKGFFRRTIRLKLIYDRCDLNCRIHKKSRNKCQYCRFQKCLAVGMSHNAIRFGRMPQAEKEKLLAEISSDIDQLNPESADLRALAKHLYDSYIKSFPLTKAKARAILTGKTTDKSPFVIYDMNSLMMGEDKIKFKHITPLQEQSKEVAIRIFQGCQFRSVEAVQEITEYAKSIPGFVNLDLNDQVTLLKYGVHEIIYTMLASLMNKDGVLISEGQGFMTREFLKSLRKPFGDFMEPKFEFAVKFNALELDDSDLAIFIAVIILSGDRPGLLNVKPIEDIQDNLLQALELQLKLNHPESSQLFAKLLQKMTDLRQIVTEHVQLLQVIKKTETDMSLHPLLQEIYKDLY
T1 sequence (P19793 1-462 partner): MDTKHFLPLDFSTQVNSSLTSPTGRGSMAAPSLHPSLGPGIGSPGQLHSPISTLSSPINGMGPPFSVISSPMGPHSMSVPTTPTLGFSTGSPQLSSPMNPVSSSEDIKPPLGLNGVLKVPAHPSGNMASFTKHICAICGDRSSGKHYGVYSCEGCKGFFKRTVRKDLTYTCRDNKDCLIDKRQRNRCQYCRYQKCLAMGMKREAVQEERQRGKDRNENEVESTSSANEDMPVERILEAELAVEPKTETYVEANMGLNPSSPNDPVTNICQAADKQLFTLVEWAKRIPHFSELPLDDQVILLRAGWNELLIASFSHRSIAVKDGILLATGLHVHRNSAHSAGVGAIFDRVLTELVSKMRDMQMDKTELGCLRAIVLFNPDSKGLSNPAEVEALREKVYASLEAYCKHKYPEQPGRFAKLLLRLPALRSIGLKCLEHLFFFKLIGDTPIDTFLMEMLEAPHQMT
Description: PPARγ-RXRα heterodimer ligand activity (luciferase reporter, PPARγ:RXRα:4ERPP/CHO-K1 cells). The format is cell-based. The conditions noted are these: concentration showing 50% of the maximum luciferase induction rate; CHO-K1 reporter cells, one day incubation. The protocol:
The PPARγ:RXRα:4ERPP/CHO-K1 cells described in WO03/099793 were cultured in a Ham F12 medium [manufactured by Life Technologies, Inc., US] containing 10% calf fetal serum [manufactured by Life Technologies, Inc., US], sown in a 96-well white plate (manufactured by Corning Coster Corporation, US] at 1×10^4 cells/well, and incubated overnight in a carbon dioxide gas incubator at 37° C.
Then, the medium was removed from the 96 well white plate, 45 μl of Ham F12-medium containing 0.1% fatty acid-free bovine serum albumin (BSA) and a test compound (5 μl) were added, and the cells were incubated for one day in a carbon dioxide gas incubator at 37° C. The medium was removed, 20 μl of PicaGene 7.5 (manufactured by Wako Pure Chemical Industries, Ltd.) 2-fold diluted with HBSS (HANKS' BALANCED SALT SOLUTION) [manufactured by BIO WHITTAKER, US] was added. After stirring, the luciferase activity was determined using the 1420 ARVO Multilabel Counter [manufactured by PerkinElmer, US].
The induction rate was calculated from the luciferase activity of each test compound based on the luciferase activity of the test compound non-administration group as 1. The test compound concentration and the induction rate were analyzed by PRISM [manufactured by GraphPad Software, Inc., US] to calculate EC50 value (compound concentration showing 50% of the maximum value of induction rate) of the test compound.
A general note: A reporter such as luciferase makes a cellular process visible.

The term EC50 denotes the midpoint of the concentration-response curve. Lower therefore signals a more potent agent. By melting point is commonly meant the temperature of the solid-liquid transition.

In the case of `CCCCCS(=O)(=O)NC(=O)CCc1ccc(OCCOC)cc1OCc1nc(-c2ccccc2)oc1C` [Example 173, 3-{4-(2-methoxyethoxy)-2-[(5-methyl-2-phenyl-1,3-oxazol-4-yl)methoxy]phenyl}-N-(pentylsulfonyl)propanamide], the melting point fell in the range of 95.9 to 96.7 °C. At PPARγ-RXRα heterodimer, this compound returned an EC50 of 9.8 nM. The like results for `CCCCCS(=O)(=O)NC(=O)/C=C/c1ccc(OCCC(C)(C)O)cc1Oc1ncc(C(F)(F)F)cc1Cl` [Example 248, (2E)-3-[2-{[3-chloro-5-(trifluoromethyl)pyridin-2-yl]oxy}-4-(3-hydroxy-3-methylbutoxy)phenyl]-N-(pentylsulfonyl)acrylamide] were, in that order, 135.5 to 136 °C and 18 nM. On the same counts, the results for `CCCCCS(=O)(=O)NC(=O)/C=C/c1ccc(OCCOCCOC)cc1Oc1ncc(C(F)(F)F)cc1Cl` [Example 256, (2E)-3-{2-{[3-chloro-5-(trifluoromethyl)pyridin-2-yl]oxy}-4-[2-(2-methoxyethoxy)ethoxy]phenyl}-N-(pentylsulfonyl)acrylamide] are 81 to 83 °C and 13 nM. On the same counts, the results for `COCCOc1ccc(CCCOC(=O)NCC2CC2)c(Oc2ncc(C(F)(F)F)cc2Cl)c1` [Example 51, 3-[2-{[3-chloro-5-(trifluoromethyl)pyridin-2-yl]oxy}-4-(2-methoxyethoxy)phenyl]propyl (cyclopropylmethyl)carbamate] are 87.8 to 87.9 °C and 20 nM.

For `CCCCCS(=O)(=O)NC(=O)/C=C/c1ccc(OCCC2(C)OCCO2)cc1Oc1ncc(C(F)(F)F)cc1Cl` [Example 453, (2E)-3-{2-{[3-chloro-5-(trifluoromethyl)pyridin-2-yl]oxy}-4-[2-(2-methyl-1,3-dioxolan-2-yl)ethoxy]phenyl}-N-(pentylsulfonyl)acrylamide], the melting point was 90 to 92 °C. Moreover, on PPARγ-RXRα heterodimer, the concentration for a half-maximal effect (EC50) worked out at 7.3 nM. On the same counts, the results for `CCCCCNS(=O)(=O)NC(=O)/C(C)=C/c1ccc(OC(C)C)cc1Oc1ncc(C(F)(F)F)cc1Cl` [Example 224, (2E)-3-(2-{[3-chloro-5-(trifluoromethyl)pyridin-2-yl]oxy}-4-isopropoxyphenyl)-2-methyl-N-[(pentylamino)sulfonyl]acrylamide] are 137.8 to 138.5 °C and 16 nM. On the same counts, the results for `CCCCCS(=O)(=O)NC(=O)CCc1ccc(OCCOCCOC)cc1Oc1ncc(C(F)(F)F)cc1Cl` [Example 257, 3-{2-{[3-chloro-5-(trifluoromethyl)pyridin-2-yl]oxy}-4-[2-(2-methoxyethoxy)ethoxy]phenyl}-N-(pentylsulfonyl)propanamide] are 76 to 77.5 °C and 2.1 nM. On the same counts, the results for `CCCCCS(=O)(=O)NC(=O)OCc1ccc(OS(=O)(=O)CCC)cc1Oc1ncc(C(F)(F)F)cc1Cl` [Example 64, 3-{[3-chloro-5-(trifluoromethyl)pyridin-2-yl]oxy}-4-[({[(pentylsulfonyl)amino]carbonyl}oxy)methyl]phenyl propane-1-sulfonate] are 86 to 89 °C and 8.7 nM. `CCCCCS(=O)(=O)NC(=O)CCc1ccc(OCCCOC)cc1Oc1ncc(C(F)(F)F)cc1Cl` [Example 258, 3-[2-{[3-chloro-5-(trifluoromethyl)pyridin-2-yl]oxy}-4-(3-methoxypropoxy)phenyl]-N-(pentylsulfonyl)propanamide]: the melting point was 115 to 115.2 °C. It took 1.1 nM to reach a half-maximal effect on PPARγ-RXRα heterodimer (EC50). The like results for `C/C(=C\c1ccc(OC(C)C)cc1Oc1ncc(C(F)(F)F)cc1Cl)C(=O)NS(=O)(=O)NCCc1cccs1` [Example 225, (2E)-3-(2-{[3-chloro-5-(trifluoromethyl)pyridin-2-yl]oxy}-4-isopropoxyphenyl)-2-methyl-N-({[2-(2-thienyl)ethyl]amino}sulfonyl)acrylamide] were, in that order, 130 to 131 °C and 16 nM. Compound `COCCOc1ccc(CCCOC(=O)NS(=O)(=O)N2Cc3ccccc3C2)c(Oc2ncc(C(F)(F)F)cc2Cl)c1` [Example 371, 3-[2-{[3-chloro-5-(trifluoromethyl)pyridin-2-yl]oxy}-4-(2-methoxyethoxy)phenyl]propyl (1,3-dihydro-2H-isoindol-2-ylsulfonyl)carbamate] had an EC50 at PPARγ-RXRα heterodimer of 4.7 nM. This lies in the single-digit nanomolar range.

In turn, `C/C(=C\c1ccc(OC(C)C)cc1Oc1ncc(C(F)(F)F)cc1Cl)C(=O)NS(=O)(=O)NC1CCC(C)CC1` (stereo not shown) [Example 223, (2E)-3-(2-{[3-chloro-5-(trifluoromethyl)pyridin-2-yl]oxy}-4-isopropoxyphenyl)-2-methyl-N-{[(4-methylcyclohexyl)amino]sulfonyl}acrylamide] registered a melting point of 176.8 to 177.2 °C. Moreover, a half-maximal response at PPARγ-RXRα heterodimer (EC50) required 55 nM. `CCCCCS(=O)(=O)NC(=O)/C=C/c1ccc(OCCCOC)cc1Oc1ncc(C(F)(F)F)cc1Cl` [Example 251, (2E)-3-[2-{[3-chloro-5-(trifluoromethyl)pyridin-2-yl]oxy}-4-(3-methoxypropoxy)phenyl]-N-(pentylsulfonyl)acrylamide]: the response at PPARγ-RXRα heterodimer was half-maximal at 7.4 nM (EC50). Still for that read-out and setting: for `CCCCCS(=O)(=O)NC(=O)/C=C/c1cc(OC(C)C)nn1Cc1ccc(C(F)(F)F)cc1Cl` [Example 111, (2E)-3-{1-[2-chloro-4-(trifluoromethyl)benzyl]-3-isopropoxy-1H-pyrazol-5-yl}-N-(pentylsulfonyl)acrylamide] the value was 9.3 nM. For `COCCOc1ccc(CCCOC(=O)NS(=O)(=O)c2ccc(Cl)cc2)c(Oc2ncc(C(F)(F)F)cc2Cl)c1` [Example 32, 3-[2-{[3-chloro-5-(trifluoromethyl)pyridin-2-yl]oxy}-4-(2-methoxyethoxy)phenyl]propyl [(4 chlorophenyl)sulfonyl]carbamate], the melting point was 147 to 150 °C. In addition, on PPARγ-RXRα heterodimer, the EC50 was determined as 6.6 nM. `CCCCCS(=O)(=O)NC(=O)C(C)Cc1ccc(OCCOC)cc1Oc1ncc(C(F)(F)F)cc1Cl` (stereo not shown) [Example 209, 3-[2-{[3-chloro-5-(trifluoromethyl)pyridin-2-yl]oxy}-4-(2-methoxyethoxy)phenyl]-2-methyl-N-(pentylsulfonyl)propanamide] displayed an EC50 at PPARγ-RXRα heterodimer of 2.3 nM.

The compound `CCCCCNS(=O)(=O)NC(=O)/C(C)=C/c1ccc(OCCOC)cc1Oc1ncc(C(F)(F)F)cc1Cl` [Example 226, (2E)-3-[2-{[3-chloro-5-(trifluoromethyl)pyridin-2-yl]oxy}-4-(2-methoxyethoxy)phenyl]-2-methyl-N-[(pentylamino)sulfonyl]acrylamide] had a melting point of 152.5 to 153 °C. At PPARγ-RXRα heterodimer, this compound gave an EC50 of 8.5 nM.

Compound `CCCCCS(=O)(=O)NC(=O)CCc1ccc(OCCCOCCOC)cc1Oc1ncc(C(F)(F)F)cc1Cl` [Example 255, 3-{2-{[3-chloro-5-(trifluoromethyl)pyridin-2-yl]oxy}-4-[3-(2-methoxyethoxy)propoxy]phenyl}-N-(pentylsulfonyl)propanamide] came in with a melting point of 95 to 95.8 °C. This compound also displayed an EC50 at PPARγ-RXRα heterodimer of 3.9 nM. The like results for `CCCCCS(=O)(=O)NC(=O)/C(C)=C/c1ccc(OCCCOC)cc1Oc1ncc(Cl)cc1Cl` [Example 190, (2E)-3-[2-[(3,5-dichloropyridin-2-yl)oxy]-4-(3-methoxypropoxy)phenyl]-2-methyl-N-(pentylsulfonyl)acrylamide] were, in that order, 116 to 116.8 °C and 15 nM.
